Drawing on PMC4050382, “A novel proteasome inhibitor suppresses tumor growth via targeting both 19S proteasome deubiquitinases and 20S proteolytic peptidases” (Scientific Reports, 2014), this text covers IC50 for one molecule.

For the test, the target named is T1, 20S proteasome (CT-like peptidase, β5 subunit) (Homo sapiens, UniProt P28074).
T1 construct: gene PSMB5; purified 20S proteasome; with 20S proteasome
T1 sequence (P28074 60-263): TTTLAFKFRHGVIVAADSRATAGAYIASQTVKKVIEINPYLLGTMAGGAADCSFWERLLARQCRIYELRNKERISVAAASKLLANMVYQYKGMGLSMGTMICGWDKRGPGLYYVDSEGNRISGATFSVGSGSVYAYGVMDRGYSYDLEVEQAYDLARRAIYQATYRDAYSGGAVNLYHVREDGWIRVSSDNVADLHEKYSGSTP
In words: fluorogenic CT-like peptidase assay with purified […] proteasome. In kind it is biochemical.

As usually defined, the IC50 is the midpoint of a concentration-inhibition curve.

As for `[O-][n+]1ccccc1[S][Cu][S]c1cccc[n+]1[O-]` [L1, CuPT], the IC50 was roughly 6 µM.
